According to US20250101041A1, “POSITIVE ALLOSTERIC MODULATORS OF THE MUSCARINIC ACETYLCHOLINE RECEPTOR M4” (Vanderbilt University, priority 2022, published 2025):

Target: T1, human mAChR M4 (Homo sapiens, UniProt P08173)
T1 construct: expressed in transfected cells; host or cells: CHO-K1 (American Type Culture Collection), stably expressing hM4 and Gqi5
T1 sequence (P08173 1-479): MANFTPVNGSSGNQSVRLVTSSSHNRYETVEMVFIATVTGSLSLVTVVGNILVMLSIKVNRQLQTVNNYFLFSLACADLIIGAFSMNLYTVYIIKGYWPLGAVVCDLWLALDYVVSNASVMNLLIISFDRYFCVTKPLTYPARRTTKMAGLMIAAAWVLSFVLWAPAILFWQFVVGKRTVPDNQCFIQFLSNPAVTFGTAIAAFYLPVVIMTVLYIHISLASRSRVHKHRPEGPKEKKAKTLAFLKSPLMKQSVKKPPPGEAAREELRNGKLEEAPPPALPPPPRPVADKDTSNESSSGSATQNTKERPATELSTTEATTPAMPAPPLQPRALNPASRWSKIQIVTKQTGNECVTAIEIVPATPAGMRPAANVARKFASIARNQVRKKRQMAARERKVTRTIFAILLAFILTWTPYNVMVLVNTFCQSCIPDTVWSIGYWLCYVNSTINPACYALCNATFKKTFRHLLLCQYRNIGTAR
Assay: mAChR M4 cell-based functional assay: calcium mobilization (Fluo-4, FDSS), potentiation of EC20 acetylcholine response in hM4-Gqi5 CHO-K1 cells
Settings: human M4; for Emax at 30 µM: CHO-K1, % ACh maximum at 30 μM; for EC50: potentiation of EC20 acetylcholine response, calcium mobilization
Summary of the method: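 CHO-K1 cells stably co-expressing human M4 and chimeric Gqi5, loaded with Fluo-4 AM (50 min, 37 °C). Compounds in 11-point 1:3 series added first; EC20 acetylcholine added at 144 s and again at 230 s. Calcium read on FDSS at 1 Hz; EC50 and Emax from four-parameter logistic fit of potentiated EC20 response.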

SMILES | Emax at 30 µM | EC50
Cc1cc(N(C)C)ncc1-c1cnc2c(c1)CN(c1nn3c(=O)ccnc3cc1C)CC2 [Compound 1-407, 7-(3-(6-(dimethylamino)-4-methylpyridin-3-yl)-7,8-dihydro-1,6-naphthyridin-6(5H)-yl)-8-methyl-4H-pyrimido [1,2-b]pyridazin-4-one] | 92% | 132 nM
Cc1cc2nccc(=O)n2nc1N1CCc2ncc(-c3cnn(C)c3C)cc2C1 [Compound 1-408, 7-(3-(1,5-dimethyl-1H-pyrazol-4-yl)-7,8-dihydro-1,6-naphthyridin-6(5H)-yl)-8-methyl-4H-pyrimido[1,2-b]pyridazin-4-one] | 90% | 257 nM
Cc1cc2nccc(=O)n2nc1N1CCc2ncc(-c3sccc3C)cc2C1 [Compound 1-409, 8-methyl-7-(3-(3-methylthiophen-2-yl)-7,8-dihydro-1,6-naphthyridin-6(5H)-yl)-4H-pyrimido[1,2-b]pyridazin-4-one] | 95% | 48 nM
Cc1cc2nccc(=O)n2nc1N1CCc2ncc(-c3ccsc3C#N)cc2C1 [Compound 1-410, 3-(6-(8-methyl-4-oxo-4H-pyrimido[1,2-b]pyridazin-7-yl)-5,6,7,8-tetrahydro-1,6-naphthyridin-3-yl)thiophene-2-carbonitrile] | 82% | 178 nM
Cc1cc2nccc(=O)n2nc1N1CCc2ncc(-c3cn(C)nc3C(F)(F)F)cc2C1 [Compound 1-411, 8-methyl-7-(3-(1-methyl-3-(trifluoromethyl)-1H-pyrazol-4-yl)-7,8-dihydro-1,6-naphthyridin-6(5H)-yl)-4H-pyrimido[1,2-b]pyridazin-4-one] | 82% | 1240 nM
Cc1cc2nccc(=O)n2nc1N1CCc2ncc(-c3cn(C)nc3C(F)F)cc2C1 [Compound 1-412, 7-(3-(3-(difluoromethyl)-1-methyl-1H-pyrazol-4-yl)-7,8-dihydro-1,6-naphthyridin-6(5H)-yl)-8-methyl-4H-pyrimido [1,2-b]pyridazin-4-one] | 86% | 352 nM
Cc1cc2nccc(=O)n2nc1N1CCc2ncc(-c3cnn(C)c3C(F)F)cc2C1 [Compound 1-413, 7-(3-(5-(difluoromethyl)-1-methyl-1H-pyrazol-4-yl)-7,8-dihydro-1,6-naphthyridin-6(5H)-yl)-8-methyl-4H-pyrimido[1,2-b]pyridazin-4-one] | 89% | 208 nM
Cc1cc2nccc(=O)n2nc1N1CCc2ncc(-c3cnn(C(F)F)c3C)cc2C1 [Compound 1-414, 7-(3-(1-(difluoromethyl)-5-methyl-1H-pyrazol-4-yl)-7,8-dihydro-1,6-naphthyridin-6(5H)-yl)-8-methyl-4H-pyrimido[1,2-b]pyridazin-4-one] | 81% | 435 nM
Cc1cc2nccc(=O)n2nc1N1CCc2ncc(-c3ccsc3C=O)cc2C1 [Compound 1-415, 3-(6-(8-methyl-4-oxo-4H-pyrimido[1,2-b]pyridazin-7-yl)-5,6,7,8-tetrahydro-1,6-naphthyridin-3-yl)thiophene-2-carbaldehyde] | 86% | 810 nM
Cc1cc2nccc(=O)n2nc1N1CCc2ncc(-c3c(C)noc3C)cc2C1 [Compound 1-416, 7-(3-(3,5-dimethylisoxazol-4-yl)-7,8-dihydro-1,6-naphthyridin-6(5H)-yl)-8-methyl-4H-pyrimido[1,2-b]pyridazin-4-one] | 89% | 797 nM
Cc1cc2nccc(=O)n2nc1N1CCc2ncc(-c3cn(C(F)F)nc3C)cc2C1 [Compound 1-417, 7-(3-(1-(difluoromethyl)-3-methyl-1H-pyrazol-4-yl)-7,8-dihydro-1,6-naphthyridin-6(5H)-yl)-8-methyl-4H-pyrimido[1,2-b]pyridazin-4-one] | 82% | 588 nM
Cc1cc2nccc(=O)n2nc1N1CCc2ncc(-c3cccnc3C(C)(C)O)cc2C1 [Compound 1-418, 7-(3-(2-(2-hydroxypropan-2-yl)pyridin-3-yl)-7,8-dihydro-1,6-naphthyridin-6(5H)-yl)-8-methyl-4H-pyrimido[1,2-b]pyridazin-4-one] | 48% | –
Cc1cc2nccc(=O)n2nc1N1CCc2ncc(-c3cncc(C(C)(C)O)c3)cc2C1 [Compound 1-419, 7-(3-(5-(2-hydroxypropan-2-yl)pyridin-3-yl)-7,8-dihydro-1,6-naphthyridin-6(5H)-yl)-8-methyl-4H-pyrimido[1,2-b]pyridazin-4-one] | 82% | 1120 nM
Cc1ncc(-c2cnc3c(c2)CN(c2nn4c(=O)ccnc4cc2C)CC3)c(C)n1 [Compound 1-420, 7-(3-(2,4-dimethylpyrimidin-5-yl)-7,8-dihydro-1,6-naphthyridin-6(5H)-yl)-8-methyl-4H-pyrimido[1,6-b]pyridazin-4-one] | 93% | 1720 nM
Cc1cc2nccc(=O)n2nc1N1CCc2ncc(-c3ccc(C#N)nc3C)cc2C1 [Compound 1-421, 6-methyl-5-(6-(8-methyl-4-oxo-4H-pyrimido[1,2-b]pyridazin-7-yl)-5,6,7,8-tetrahydro-1,6-naphthyridin-3-yl)picolinonitrile] | 97% | 2420 nM
Cc1cc2nccc(=O)n2nc1N1CCc2ncc(-c3cccnc3C(C)C)cc2C1 [Compound 1-422, 7-(3-(2-isopropylpyridin-3-yl)-7,8-dihydro-1,6-naphthyridin-6(5H)-yl)-8-methyl-4H-pyrimido [1,2-b]pyridazin-4-one] | 64% | 1720 nM
Cc1cc2nccc(=O)n2nc1N1CCc2ncc(-c3cc(C#N)n(C)c3C)cc2C1 [Compound 1-423, 1,5-dimethyl-4-(6-(8-methyl-4-oxo-4H-pyrimido[1,2-b]pyridazin-7-yl)-5,6,7,8-tetrahydro-1,6-naphthyridin-3-yl)-1H-pyrrole-2-carbonitrile] | 79% | 1190 nM
Cc1cc2nccc(=O)n2nc1N1CCc2ncc(-c3c(C)nn(C)c3C)cc2C1 [Compound 1-424, 8-methyl-7-(3-(1,3,5-trimethyl-1H-pyrazol-4-yl)-7,8-dihydro-1,6-naphthyridin-6(5H)-yl)-4H-pyrimido[1,2-b] pyridazin-4-one] | 84% | 746 nM
Cc1cc2nccc(=O)n2nc1N1CCc2ncc(-c3cccnc3C(F)F)cc2C1 [Compound 1-425, 7-(3-(2-(difluoromethyl)pyridin-3-yl)-7,8-dihydro-1,6-naphthyridin-6(5H)-yl)-8-methyl-4H-pyrimido[1,2-b]pyridazin-4-one] | 79% | 836 nM
COc1ccc(-c2cnc3c(c2)CN(c2nn4c(=O)ccnc4cc2C)CC3)c(C)n1 [Compound 1-426, 7-(3-(6-methoxy-2-methylpyridin-3-yl)-7,8-dihydro-1,6-naphthyridin-6(5H)-yl)-8-methyl-4H-pyrimido[1,2-b]pyridazin-4-one] | 84% | 348 nM
COc1nccc(-c2cnc3c(c2)CN(c2nn4c(=O)ccnc4cc2C)CC3)c1C [Compound 1-427, 7-(3-(2-methoxy-3-methylpyridin-4-yl)-7,8-dihydro-1,6-naphthyridin-6(5H)-yl)-8-methyl-4H-pyrimido[1,2-b]pyridazin-4-one] | 78% | 1520 nM
Cc1cc2nccc(=O)n2nc1N1CCc2ncc(-c3sc(C(=O)NC4CC4)cc3C)cc2C1 [Compound 1-428, N-cyclopropyl-4-methyl-5-(6-(8-methyl-4-oxo-4H-pyrimido[1,2-b]pyridazin-7-yl)-5,6,7,8-tetrahydro-1,6-naphthyridin-3-yl)thiophene-2-carboxamide] | 80% | 351 nM
Cc1c(N2CCc3ncc(C4CCOCC4)cc3C2)nn2c(=O)ccnc2c1C [Compound 1-429, 8,9-Dimethyl-7-(3-(tetrahydro-2H-pyran-4-yl)-7,8-dihydro-1,6-naphthyridin-6(5H)-yl)-4H-pyrimido[1,2-b]pyridazin-4-one] | 91% | 901 nM
Cc1c(N2CCc3ncc(C4CCCCC4)cc3C2)nn2c(=O)ccnc2c1C [Compound 1-430, 7-(3-cyclohexyl-7,8-dihydro-1,6-naphthyridin-6(5H)-yl)-8,9-dimethyl-4H-pyrimido[1,2-b] pyridazin-4-one] | 75% | 95 nM
Cc1ccccc1-c1cnc2c(c1)CN(c1nn3c(=O)ccnc3cc1C)CC2 [Compound 1-431, 8-methyl-7-(3-(o-tolyl)-7,8-dihydro-1,6-naphthyridin-6(5H)-yl)-4H-pyrimido[1,2-b] pyridazin-4-one] | 96% | 130 nM
Cc1ccc(F)cc1-c1cnc2c(c1)CN(c1nn3c(=O)ccnc3cc1C)CC2 [Compound 1-432, 7-(3-(5-fluoro-2-methylphenyl)-7,8-dihydro-1,6-naphthyridin-6(5H)-yl)-8-methyl-4H-pyrimido [1,2-b]pyridazin-4-one] | 80% | 63 nM
Cc1cc2nccc(=O)n2nc1N1CCc2ncc(-c3ccccc3C(C)(F)F)cc2C1 [Compound 1-433, 7-(3-(2-(1,1-difluoroethyl)phenyl)-7,8-dihydro-1,6-naphthyridin-6(5H)-yl)-8-methyl-4H-pyrimido[1,2-b]pyridazin-4-one] | 41% | 1250 nM
